One series can be described thus: cell toxicity CC50. It counts as cell-based. Conditions: human; Hep-G2 cells; mean of at least two experiments; read-out: Cell Cytotoxicity CC50.
Series [1] relates to RSV (RSV A2 ECACC, 0709161v). The series can be described thus: RSV plaque reduction assay. It counts as cell-based, respiratory syncytial virus. As to conditions: mean of at least two experiments unless noted (n = 1). In short, it runs like this: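 Hep-G2 monolayers infected with 100 PFU/well RSV A2 premixed with eight serial compound dilutions (2 h, 37° C.), then kept 2 days under CMC overlay with compound in DMEM/2% FBS. Plaques immunostained (HRP/TrueBlue) and counted; % infection versus virus control gives EC50, mean of at least two experiments, rounded.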
In general terms: Plaque reduction counts the foci of infection that form in a cell layer.

Where [2] appears, read: human respiratory syncytial virus, HepG2, read-out: RSV A2 Plaque EC50, RSV A2 in Hep-G2 cells.

Molecules are shown by their SMILES. Read-outs that look alike come from different tables or passages of the source. Some results are limits rather than exact numbers.

In general, CC50 refers to the concentration giving 50% cytotoxicity. Broadly, the EC50 is the concentration at which the effect is half-maximal. Turning to `O=C(N[C@H]1N=C(c2ccccc2)c2cccc(F)c2NC1=O)c1c(-c2c(F)cccc2F)nn2c1OCC(CO)C2` (single isomer, unassigned) [Example 129-1, (6R*)-2-(2,6-Difluorophenyl)-N-[(3S)-9-fluoro-2-oxo-5-phenyl-1,3-dihydro-1,4-benzodiazepin-3-yl]-6-(hydroxymethyl)-6,7-dihydro-5H-pyrazolo[5,1-b][1,3]oxazine-3-carboxamide], the CC50 in “cell toxicity CC50” was > 25000 nM. Moreover, in series [1] (setting [2]), the half-maximal effective concentration (EC50) was 39 nM.
As for `O=C(N[C@H]1N=C(c2ccccc2)c2ccccc2NC1=O)c1c(-c2ccccc2)nn2c1OCC1(COC1)C2` [Example 28, N-[(3S)-2-oxo-5-phenyl-1,3-dihydro-1,4-benzodiazepin-3-yl]-2-phenylspiro[5,7-dihydropyrazolo[5,1-b][1,3]oxazine-6,3′-oxetane]-3-carboxamide], the CC50 in “cell toxicity CC50” is > 25000 nM. The EC50 in series [1] (setting [2]) was 76 nM.
On the same counts, the results for `O=C(N[C@H]1N=C(c2ccccc2)c2cccc(F)c2NC1=O)c1c(-c2ccccc2F)nn2c1SCCC2` [Example 35, N-[(3S)-9-Fluoro-2-oxo-5-phenyl-2,3-dihydro-1H-1,4-benzodiazepin-3-yl]-2-(2-fluorophenyl)-5H,6H,7H-pyrazolo[3,2-b][1,3]thiazine-3-carboxamide] are > 25000 nM and 117 nM.
In the same order, the values of `CCc1ccc(-c2nn3c(c2C(=O)N[C@H]2N=C(c4ccccc4)c4ccccc4NC2=O)OCC2(CC2)C3)cn1` [Example 180, 2-(6-Ethylpyridin-3-yl)-N-[(3S)-2-oxo-5-phenyl-1,3-dihydro-1,4-benzodiazepin-3-yl]spiro[5,7-dihydropyrazolo[5,1-b][1,3]oxazine-6,1′-cyclopropane]-3-carboxamide] are > 25000 nM and 75 nM.
On to `O=C(N[C@H]1N=C(c2ccccc2)c2cccc(F)c2NC1=O)c1c(-c2c(F)cccc2F)nn2c1OC(CO)CC2` (single isomer, unassigned) [Example 189-1, (5R*)-2-(2,6-Difluorophenyl)-N-[(3S)-9-fluoro-2-oxo-5-phenyl-1,3-dihydro-1,4-benzodiazepin-3-yl]-5-(hydroxymethyl)-6,7-dihydro-5H-pyrazolo[5,1-b][1,3]oxazine-3-carboxamide], for which the CC50 in the series “cell toxicity CC50” was > 25000 nM. Further, the EC50 in series [1] (setting [2]) was 41 nM.
In the same order, the values of `CCc1ccc(-c2nn3c(c2C(=O)N[C@H]2N=C(c4ccccc4)c4cccc(F)c4NC2=O)OCC2(CC2)C3)cn1` [Example 181, 2-(6-Ethylpyridin-3-yl)-N-[(3S)-9-fluoro-2-oxo-5-phenyl-1,3-dihydro-1,4-benzodiazepin-3-yl]spiro[5,7-dihydropyrazolo[5,1-b][1,3]oxazine-6,1′-cyclopropane]-3-carboxamide] are > 25000 nM and 42 nM.
`COC1CN(c2ccc(-c3nn4c(c3C(=O)N[C@H]3N=C(c5ccccc5)c5cccc(F)c5NC3=O)O[C@H](C)CC4)cn2)C1` [Example 144, (5R)-N-[(3S)-9-fluoro-2-oxo-5-phenyl-1,3-dihydro-1,4-benzodiazepin-3-yl]-2-[6-(3-methoxyazetidin-1-yl)pyridin-3-yl]-5-methyl-6,7-dihydro-5H-pyrazolo[5,1-b][1,3]oxazine-3-carboxamide]: in the series “cell toxicity CC50”, the CC50 was > 25000 nM. In addition, in series [1] (setting [2]), the EC50 is 101 nM.
On the same counts, the results for `C[C@H]1CCn2nc(-c3ccc(N4C[C@H]5C[C@@H]4CO5)nc3)c(C(=O)N[C@H]3N=C(c4ccccc4)c4cccc(F)c4NC3=O)c2O1` [Example 94, (5S)-5-Methyl-N-[(3S)-9-fluoro-2-oxo-5-phenyl-1,3-dihydro-1,4-benzodiazepin-3-yl]-2-[6-[(1R,4R)-2-oxa-5-azabicyclo[2.2.1]heptan-5-yl]pyridin-3-yl]-6,7-dihydro-5H-pyrazolo[5,1-b][1,3]oxazine-3-carboxamide] are > 25000 nM and 44 nM.
In the same order, the values of `C[C@@H]1CCn2nc(-c3ccc(N4C[C@@H]5C[C@H]4CO5)nc3F)c(C(=O)N[C@H]3N=C(c4ccccc4)c4cccc(F)c4NC3=O)c2O1` (single isomer, unassigned) [Example 88] are > 25000 nM and 146 nM.
On the same counts, the results for `Cc1ccc(-c2nn3c(c2C(=O)N[C@H]2N=C(c4ccccc4)c4cccc(F)c4NC2=O)O[C@H](C)CC3)cn1` [Example 77, (5R)-5-Methyl-2-(6-methylpyridin-3-yl)-N-[(3S)-9-fluoro-2-oxo-5-phenyl-1,3-dihydro-1,4-benzodiazepin-3-yl]-6,7-dihydro-5H-pyrazolo[5,1-b][1,3]oxazine-3-carboxamide] are > 25000 nM and 159 nM.
Consider `CC(C)C1COc2c(C(=O)N[C@H]3N=C(c4ccccc4)c4cccc(F)c4NC3=O)c(-c3ccccc3F)nn2C1` (stereo partly drawn) [Example 12, N-[(3S)-9-Fluoro-2-oxo-5-phenyl-2,3-dihydro-1H-1,4-benzodiazepin-3-yl]-2-(2-flurophenyl)-6-(propan-2-yl)-5H,6H,7H-pyrazolo[3,2-b][1,3]oxazine-3-carboxamide], for which the CC50 in “cell toxicity CC50” is > 25000 nM. Further, the EC50 in series [1] (setting [2]) was 39 nM.
On the same counts, the results for `O=C(N[C@H]1N=C(c2ccccc2)c2cccc(F)c2NC1=O)c1c(-c2ccc(F)cc2F)nn2c1SCCC2` [Example 34, 2-(2,4-Difluorophenyl)-N-[(3S)-9-fluoro-2-oxo-5-phenyl-2,3-dihydro-1H-1,4-benzodiazepin-3-yl]-5H,6H,7H-pyrazolo[3,2-b][1,3]thiazine-3-carboxamide] are > 25000 nM and 143 nM.
Consider `CC(C)C1CCn2nc(-c3ccccc3F)c(C(=O)N[C@H]3N=C(c4ccccc4)c4cccc(F)c4NC3=O)c2O1` (stereo partly drawn) [Example 8, N-[(3S)-9-fluoro-2-oxo-5-phenyl-2,3-dihydro-1H-1,4-benzodiazepin-3-yl]-2-(2-fluorophenyl)-5-(propan-2-yl)-5H,6H,7H-pyrazolo[3,2-b][1,3]oxazine-3-carboxamide], for which the CC50 in the series “cell toxicity CC50” is > 25000 nM. In series [1] (setting [2]), the EC50 turned out to be 37 nM.
Take `C[C@@H]1CCn2nc(-c3ccsc3)c(C(=O)N[C@H]3N=C(c4ccccc4)c4cccc(F)c4NC3=O)c2O1` [Example 63, (5R)-N-[(3S)-9-fluoro-2-oxo-5-phenyl-1,3-dihydro-1,4-benzodiazepin-3-yl]-5-methyl-2-(3-thienyl)-6,7-dihydro-5H-pyrazolo[5,1-b][1,3]oxazine-3-carboxamide]: the CC50 in the series “cell toxicity CC50” is > 25000 nM. For the same compound, the EC50 in series [1] (setting [2]) was found to be 94 nM.
On the same counts, the results for `CCn1cc(-c2nn3c(c2C(=O)N[C@H]2N=C(c4ccccc4)c4cccc(F)c4NC2=O)O[C@@H](C)CC3)cn1` [Example 158, (5S)-2-(1-Ethylpyrazol-4-yl)-N-[(3S)-9-fluoro-2-oxo-5-phenyl-1,3-dihydro-1,4-benzodiazepin-3-yl]-5-methyl-6,7-dihydro-5H-pyrazolo[5,1-b][1,3]oxazine-3-carboxamide] are > 25000 nM and 48 nM.
Regarding `C[C@@H]1CCn2nc(-c3ccccc3)c(C(=O)N[C@H]3N=C(c4ccccc4)c4cccc(F)c4NC3=O)c2O1` [Example 81, (5R)-5-Methyl-2-phenyl-N-[(3S)-9-fluoro-2-oxo-5-phenyl-1,3-dihydro-1,4-benzodiazepin-3-yl]-6,7-dihydro-5H-pyrazolo[5,1-b][1,3]oxazine-3-carboxamide], the CC50 in “cell toxicity CC50” was > 25000 nM. Also, the EC50 in series [1] (setting [2]) stood at 84 nM.
In the same order, the values of `CC(C)Nc1ccc(-c2nn3c(c2C(=O)N[C@H]2N=C(c4ccccc4)c4cccc(F)c4NC2=O)O[C@H](C)CC3)cn1` [Example 67, (5R)-N-[(3S)-9-fluoro-2-oxo-5-phenyl-1,3-dihydro-1,4-benzodiazepin-3-yl]-2-[6-(isopropylamino)-3-pyridyl]-5-methyl-6,7-dihydro-5H-pyrazolo[4,1-b][1,3]oxazine-3-carboxamide] are > 25000 nM and 19 nM.
On the same counts, the results for `C[C@@H]1CCn2nc(-c3cc(S(C)(=O)=O)ccc3F)c(C(=O)N[C@H]3N=C(c4ccccc4)c4cccc(F)c4NC3=O)c2O1` [Example 198, (5R)-2-(2-Fluoro-5-methylsulfonylphenyl)-N-[(3S)-9-fluoro-2-oxo-5-phenyl-1,3-dihydro-1,4-benzodiazepin-3-yl]-5-methyl-6,7-dihydro-5H-pyrazolo[5,1-b][1,3]oxazine-3-carboxamide] are > 25000 nM and 35 nM.
In the same order, the values of `C[C@H]1CCn2nc(-c3ccccc3F)c(C(=O)N[C@H]3N=C(c4ccccc4)c4ccccc4NC3=O)c2O1` [Example 26, (5S)-2-(2-Fluorophenyl)-5-methyl-N-[(3S)-2-oxo-5-phenyl-1,3-dihydro-1,4-benzodiazepin-3-yl]-6,7-dihydro-5H-pyrazolo[5,1-b][1,3]oxazine-3-carboxamide] are > 25000 nM and 43 nM.
Take `COCC1CCn2nc(-c3ccccc3F)c(C(=O)N[C@H]3N=C(c4ccccc4)c4cccc(F)c4NC3=O)c2O1` (single isomer, unassigned) [Example 191-1, (5R*)-N-[(3S)-9-fluoro-2-oxo-5-phenyl-1,3-dihydro-1,4-benzodiazepin-3-yl]-2-(2-fluorophenyl)-5-(methoxymethyl)-6,7-dihydro-5H-pyrazolo[5,1-b][1,3]oxazine-3-carboxamide]: the CC50 in the series “cell toxicity CC50” was > 25000 nM. For the same compound, the EC50 in series [1] (read-out: RSV A2 Plaque EC50, RSV A2 in Hep-G2 cells) came to 83 nM.
Take `CC1CCOc2c(C(=O)N[C@H]3N=C(c4ccccc4)c4cccc(F)c4NC3=O)c(-c3ccccc3F)nn21` (stereo partly drawn) [Example 105, N-[(3S)-9-fluoro-2-oxo-5-phenyl-1,3-dihydro-1,4-benzodiazepin-3-yl]-2-(2-fluorophenyl)-7-methyl-6,7-dihydro-5H-pyrazolo[5,1-b][1,3]oxazine-3-carboxamide]: in the series “cell toxicity CC50”, the CC50 is > 25000 nM. Moreover, in series [1] (setting [2]), the EC50 was determined as 48 nM.

The record behind these values is US12678446B2 (PFIZER INC., priority 2020, dated 2026).
